Values after ≈ are worked out from the molar mass of the structure shown. “Also recorded” adds a separate entry of the source.
What was measured:
[1] = target: T1, ROCK1 human recombinant enzyme (Homo sapiens, UniProt Q13464); experiment: ROCK1 inhibition assay (Eurofins-Cerep, phosphorylation of Ulight-RRRSLLE substrate); type: biochemical
T1 construct: purchased EUROFINS-CEREP France (contract assay, study numbers 100033685 and 100040481); host or cells: Sf9 insect cells
Protocol: (§1) The analysis was performed using software developed at Cerep (Hill software) and GraphPad Prism® 5.0 (GraphPad Software, Inc., San Diego, CA) and validated through comparison with results generated using the SigmaPlot 4.0 software.
(§2) Prior to this assay, we evaluated the solubility of these compounds in water (buffer pH 7.4) to ensure that the inhibition percentages were not influenced by the precipitation of the compounds under test conditions.

[2] = target: T2, ROCK2 human recombinant enzyme (Homo sapiens, UniProt O75116); experiment: ROCK2 inhibition assay (Eurofins-Cerep, phosphorylation of Ulight-RRRSLLE substrate); type: biochemical
T2 construct: purchased EUROFINS-CEREP France (contract assay, study numbers 100033685 and 100040481); host or cells: Sf21 insect cells
T2 sequence (O75116 1-543 limits assumed): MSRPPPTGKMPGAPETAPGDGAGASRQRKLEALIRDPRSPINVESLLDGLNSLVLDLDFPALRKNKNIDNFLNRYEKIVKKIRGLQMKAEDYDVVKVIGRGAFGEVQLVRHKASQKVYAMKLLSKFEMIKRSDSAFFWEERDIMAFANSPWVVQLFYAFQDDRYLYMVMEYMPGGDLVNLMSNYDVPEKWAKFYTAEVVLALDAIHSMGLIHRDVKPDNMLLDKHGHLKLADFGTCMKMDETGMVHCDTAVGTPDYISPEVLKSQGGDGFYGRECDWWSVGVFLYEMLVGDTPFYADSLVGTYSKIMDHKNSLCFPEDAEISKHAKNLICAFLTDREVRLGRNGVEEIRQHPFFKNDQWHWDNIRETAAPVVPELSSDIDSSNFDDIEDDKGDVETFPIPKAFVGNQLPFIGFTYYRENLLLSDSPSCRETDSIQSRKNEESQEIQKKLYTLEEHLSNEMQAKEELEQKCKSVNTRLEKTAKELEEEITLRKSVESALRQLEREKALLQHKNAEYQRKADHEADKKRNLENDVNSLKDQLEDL
Protocol: as §1, §2

[3] = Water solubility assay (UV spectrophotometric method); type: physicochemical; conditions: aqueous buffer, thermodynamic from solid, water (buffer pH 7.4), stirring 4 h at 37 °C
Protocol: The solubility assay was performed considering the absorptivity of compounds under ultraviolet spectroscopy as described by Schneider et al.[20] Assay wavelength was determined through λmax characteristic of each compound. Saturated aqueous solutions were prepared (0.8–1.0 mg/mL) and kept under stirring for 4 h at 37 °C. The supernatant was filtered in […] filters and transferred to a quartz cuvette (10 mm) for spectra acquisition. Solubility was determined by linear regression used as Excel graph plots, solutions were prepared by dilutions of the original solution in methanol. Data were collected in triplicate and the mean values were used to create the graph plots. The correlation coefficient (R^2) values were between 0.9982 and 1.
The N-sulphonylhydrazone derivatives 5a–h were evaluated for their ability to inhibit both ROCK1 and ROCK2 isoforms by measuring the phosphorylation of the Ulight-RRRSLLE substrate using human recombinant enzymes expressed in Sf9[23] and Sf21^24 cells, respectively. Prior to this assay, we evaluated the solubility of these compounds in water (buffer pH 7.4) to ensure that the inhibition percentages were not influenced by the precipitation of the compounds under test conditions. The enzymatic assay was initially performed at a screening concentration of 3 μM, which is capable of guaranteeing the solubility of most of the compounds, and the obtained results are shown in Table 2.

[4] = tested on: MDA-MB 231 cells; experiment: Cell-based scratch assay (cell migration); set-up: species or system human; conditions: 10 or 30 μM, 24 h
Protocol: The human mammary gland/breast epithelial cell line MDA-MB 231 was obtained from the American Type Culture Collection (ATCC® HTB-26™) and this use was approved by the Ethics Committee for Animal Care and Use in Scientific Research from the Federal University of Rio de Janeiro. Cells were routinely grown in RPMI medium containing 10% foetal bovine serum (FBS), 1% L-glutamine and 1% penicillin-streptomycin, in a humidified 5% CO2 atmosphere at 37 °C. Cells were cultured up to 70–100% confluence and then some cultures were treated with the compounds at different concentrations for 24 or 48 h. All cell culture reagents were purchased from Invitrogen (São Paulo, Brazil).
Cells were cultured in 24-well culture plates for 24 h up to 90–100% confluence. Scratched wound lines were created with the help of a 200 μl micropipette tip. […] Images were acquired with an Olympus DP71 digital camera (Olympus, Japan) and the wound area was quantified using Fiji software (based on ImageJ, http://imageJ.nih.gov/ij/) from three different experiments.
The functions of Rho-kinase include the regulation of cellular contraction, motility, morphology, polarity, division, and gene expression. Therefore, we performed a cell-based scratch assay followed by the quantification of the wounded area to analyse whether compounds 5b (LASSBio-2020) and 11 (LASSBio-2065) altered cell migration. […]

[5] = screening concentration 3 μM, average of two experiments

T1 sequence (Q13464 whole entry): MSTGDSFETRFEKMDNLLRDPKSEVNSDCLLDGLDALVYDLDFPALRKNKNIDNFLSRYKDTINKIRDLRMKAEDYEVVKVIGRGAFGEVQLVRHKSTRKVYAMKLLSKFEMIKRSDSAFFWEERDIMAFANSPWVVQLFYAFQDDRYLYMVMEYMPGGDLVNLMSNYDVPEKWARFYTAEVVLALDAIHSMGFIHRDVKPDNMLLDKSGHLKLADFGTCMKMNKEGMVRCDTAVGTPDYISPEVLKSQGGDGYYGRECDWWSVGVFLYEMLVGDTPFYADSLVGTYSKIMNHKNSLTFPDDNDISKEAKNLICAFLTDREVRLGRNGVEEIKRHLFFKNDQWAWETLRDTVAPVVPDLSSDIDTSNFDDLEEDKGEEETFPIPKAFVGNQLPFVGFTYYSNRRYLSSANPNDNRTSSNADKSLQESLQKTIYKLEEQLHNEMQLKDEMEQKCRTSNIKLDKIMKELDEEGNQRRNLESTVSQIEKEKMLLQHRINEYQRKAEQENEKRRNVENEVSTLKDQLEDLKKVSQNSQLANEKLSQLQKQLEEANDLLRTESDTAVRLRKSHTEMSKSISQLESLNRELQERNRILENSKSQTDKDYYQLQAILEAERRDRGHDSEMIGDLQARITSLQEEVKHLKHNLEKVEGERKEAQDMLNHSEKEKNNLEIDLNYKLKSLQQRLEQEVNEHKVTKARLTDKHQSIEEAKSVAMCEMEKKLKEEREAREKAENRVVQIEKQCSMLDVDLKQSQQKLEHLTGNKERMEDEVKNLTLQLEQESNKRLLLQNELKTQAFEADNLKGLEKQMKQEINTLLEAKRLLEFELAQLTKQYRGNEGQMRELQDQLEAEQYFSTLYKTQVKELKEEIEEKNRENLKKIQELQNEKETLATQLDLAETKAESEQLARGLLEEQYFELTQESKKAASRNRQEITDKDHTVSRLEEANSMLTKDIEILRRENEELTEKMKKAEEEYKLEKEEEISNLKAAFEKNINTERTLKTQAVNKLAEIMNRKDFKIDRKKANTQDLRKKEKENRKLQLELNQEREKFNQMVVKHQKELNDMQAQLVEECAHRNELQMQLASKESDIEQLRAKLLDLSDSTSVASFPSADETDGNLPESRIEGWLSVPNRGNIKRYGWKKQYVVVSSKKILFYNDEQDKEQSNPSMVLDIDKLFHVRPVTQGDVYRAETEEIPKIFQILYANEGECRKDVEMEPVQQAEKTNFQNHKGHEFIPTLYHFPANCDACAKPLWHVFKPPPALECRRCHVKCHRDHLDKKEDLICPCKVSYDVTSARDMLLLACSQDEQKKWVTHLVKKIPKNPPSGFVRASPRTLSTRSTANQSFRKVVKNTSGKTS

`O=S(=O)(N/N=C/c1ccccc1)c1cccc2cnccc12` [Compound 5b, (E)-N′-benzylideneisoquinoline-5-sulphonohydrazide] showed an IC50 ([1]; human recombinant ROCK1, five-point assay, 1 to 50 µM, mean of two experiments) of 13 µM, an inhibition at 3 µM [1, 5] of 29% and an IC50 ([2]; human recombinant ROCK2, five-point assay, 1 to 50 µM, mean of two experiments) of 7.1 µM. For the same molecule, the inhibition at 3 µM [2, 5] was 24.2%, the solubility at 4 h [3] was 54 µM (≈ 16.8 µg/mL) and the “effect on cell migration (result in words)” value [4] was “inhibited MDA-MB 231 cell migration; also recorded: effective at inhibiting cell migration”. For the same molecule, the melting point was 172 °C.
